# Values quoted from earlier work in US20050101653A1, “Combination therapy for the treatment of migraine” (priority 1999, published 2005).
# Tested on: carotid vascular resistance
# Conditions: anaesthetized dog
structure (smiles),measurement,value
"CNS(=O)(=O)Cc1ccc2[nH]cc(CCN(C)C)c2c1 [Sumatriptan, sumatriptan]",effect on carotid vascular resistance,selective increase in carotid vascular resistance
